Results: patent publication US9718828B2 (MERCK SHARP & DOHME CORP., priority 2011, dated 2017)
Like-named read-outs stand apart in the source and are kept apart here.

Biological target: hBTK (full-length BTK, 6HIS-tag cleaved) (Homo sapiens (Human), UniProt Q06187)
Assay: BTK enzymatic activity, LANCE TR-FRET assay (Assay Method C)
Type: biochemical
Conditions: 50 pM hBTK, 25 μM ATP
[1] = LANCE TR-FRET, class 100-1000 is given as ≧100 nM-<1 μM, read-out: IC50 Btk activity values - Assay Method C
[2] = Table D, Assay Method C (LANCE TR-FRET), read-out: IC50 BTK activity value

Chain of hBTK (full-length BTK, 6HIS-tag cleaved) (Q06187 whole entry): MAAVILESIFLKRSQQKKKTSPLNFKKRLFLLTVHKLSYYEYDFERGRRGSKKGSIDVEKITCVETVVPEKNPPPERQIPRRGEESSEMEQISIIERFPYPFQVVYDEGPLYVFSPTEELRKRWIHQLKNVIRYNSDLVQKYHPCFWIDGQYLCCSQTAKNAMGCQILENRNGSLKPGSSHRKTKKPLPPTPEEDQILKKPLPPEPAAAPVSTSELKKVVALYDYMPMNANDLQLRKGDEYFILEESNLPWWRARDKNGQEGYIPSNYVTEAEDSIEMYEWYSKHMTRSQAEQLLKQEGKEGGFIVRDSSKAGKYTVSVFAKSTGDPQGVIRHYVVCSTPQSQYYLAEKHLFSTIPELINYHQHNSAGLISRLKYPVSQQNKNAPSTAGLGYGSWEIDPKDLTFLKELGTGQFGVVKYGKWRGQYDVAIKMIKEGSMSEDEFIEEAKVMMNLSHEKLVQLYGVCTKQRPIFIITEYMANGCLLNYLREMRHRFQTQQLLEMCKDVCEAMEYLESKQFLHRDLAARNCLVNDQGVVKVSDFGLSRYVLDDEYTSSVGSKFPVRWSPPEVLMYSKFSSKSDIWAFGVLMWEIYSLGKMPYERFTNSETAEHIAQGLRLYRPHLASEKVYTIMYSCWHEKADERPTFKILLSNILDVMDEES

Structure (SMILES)	IC50 [1] [nM]	IC50 [2] [nM]
COCc1cnc(N)c2c(-c3ccc(C(=O)Nc4cc(C(F)(F)F)ccn4)cc3)nc([C@@H]3CC[C@H](C)N(C(=O)C4(C)COC4)C3)n12 [Example 450, 4-[8-amino-5-(methoxymethyl)-3-{(3R,6S)-6-methyl-1-[(3-methyloxetan-3-yl)carbonyl]piperidin-3-yl}imidazo[1,5-a]pyrazin-1-yl]-N-[4-(trifluoromethyl)pyridin-2-yl]benzamide]	< 10	–
COCc1cnc(N)c2c(-c3ccc(C(=O)Nc4cc(C(F)(F)F)ccn4)cc3F)nc([C@@H]3CCCN(C(=O)C4(C)COC4)C3)n12 [Example 451, 4-[8-amino-5-(methoxymethyl)-3-{(3R)-1-[(3-methyloxetan-3-yl)carbonyl]piperidin-3-yl}imidazo[1,5-a]pyrazin-1-yl]-3-fluoro-N-[4-(trifluoromethyl)pyridin-2-yl]benzamide]	< 10	–
COCC(=O)N1CCC[C@@H](c2nc(-c3ccc(C(=O)Nc4cc(C(F)(F)F)ccn4)cc3F)c3c(N)ncc(COC)n23)C1 [Example 452, 4-{8-amino-3-[(3R)-1-(methoxyacetyl)piperidin-3-yl]-5-(methoxymethyl)imidazo[1,5-a]pyrazin-1-yl}-3-fluoro-N-[4-(trifluoromethyl)pyridin-2-yl]benzamide]	< 10	–
Cc1cnc(N)c2c(-c3ccc(C(=O)Nc4cc(C(F)(F)F)ccn4)cc3)nc([C@@H]3CCCN(C(=O)C4(C)COC4)C3)n12 [Example 453, 4-(8-amino-5-methyl-3-{(3R)-1-[(3-methyloxetan-3-yl)carbonyl]piperidin-3-yl}imidazo[1,5-a]pyrazin-1-yl)-N-[4-(trifluoromethyl)pyridin-2-yl]benzamide]	< 10	–
Cc1cnc(N)c2c(-c3ccc(C(=O)Nc4cc(C(C)(F)F)ccn4)cc3)nc([C@@H]3CCCN(C(=O)C4(C)COC4)C3)n12 [Example 454, 4-(8-amino-5-methyl-3-{(3R)-1-[(3-methyloxetan-3-yl)carbonyl]piperidin-3-yl}imidazo[1,5-a]pyrazin-1-yl)-N-[4-(1,1-difluoroethyl)pyridin-2-yl]benzamide]	< 10	–
CCc1ccnc(NC(=O)c2ccc(-c3nc([C@@H]4CCCN(C(=O)C5(C)COC5)C4)n4c(C)cnc(N)c34)cc2)c1 [Example 455, 4-(8-amino-5-methyl-3-{(3R)-1-[(3-methyloxetan-3-yl)carbonyl]piperidin-3-yl}imidazo[1,5-a]pyrazin-1-yl)-N-(4-ethylpyridin-2-yl)benzamide]	< 10	–
Cc1cnc(N)c2c(-c3ccc(C(=O)Nc4cc(OC5CC5)ccn4)cc3)nc([C@@H]3CCCN(C(=O)C4(C)COC4)C3)n12 [Example 456, 4-(8-amino-5-methyl-3-{(3R)-1-[(3-methyloxetan-3-yl)carbonyl]piperidin-3-yl}imidazo[1,5-a]pyrazin-1-yl)-N-[4-(cyclopropyloxy)pyridin-2-yl]benzamide]	< 10	0.403
Cc1cnc(N)c2c(-c3ccc(C(=O)Nc4cc(OC5CC5)ccn4)cc3)nc([C@@H]3CCCN(C(=O)C4CC4)C3)n12 [Example 457, 4-{8-amino-3-[(3R)-1-(cyclopropylcarbonyl)piperidin-3-yl]-5-methylimidazo[1,5-a]pyrazin-1-yl}-N-[4-(cyclopropyloxy)pyridin-2-yl]benzamide]	< 10	–
Cc1cnc(N)c2c(-c3ccc(C(=O)Nc4cc(C(F)F)ccn4)cc3)nc([C@@H]3CCCN(C(=O)C4(C)COC4)C3)n12 [Example 458, 4-(8-amino-5-methyl-3-{(3R)-1-[(3-methyloxetan-3-yl)carbonyl]piperidin-3-yl}imidazo[1,5-a]pyrazin-1-yl)-N-[4-(difluoromethyl)pyridin-2-yl]benzamide]	< 10	–
COc1ccnc(NC(=O)c2ccc(-c3nc([C@@H]4CCCN(C(=O)C5(C)COC5)C4)n4c(C)cnc(N)c34)cc2)c1 [Example 459, 4-(8-amino-5-methyl-3-{(3R)-1-[(3-methyloxetan-3-yl)carbonyl]piperidin-3-yl}imidazo[1,5-a]pyrazin-1-yl)-N-(4-methoxypyridin-2-yl)benzamide]	< 10	–
COc1ccnc(NC(=O)c2ccc(-c3nc([C@@H]4CCCN(C(C)=O)C4)n4c(C)cnc(N)c34)cc2)c1 [Example 460, 4-{3-[(3R)-1-acetylpiperidin-3-yl]-8-amino-5-methylimidazo[1,5-a]pyrazin-1-yl}-N-(4-methoxypyridin-2-yl)benzamide]	< 10	–
CC(=O)N1C[C@H](c2nc(-c3ccc(C(=O)Nc4cc(C(F)F)ccn4)cc3F)c3c(N)ncc(C)n23)CC[C@@H]1C [Example 461, 4-{3-[(3R,6S)-1-acetyl-6-methylpiperidin-3-yl]-8-amino-5-methylimidazo[1,5-a]pyrazin-1-yl}-N-[4-(difluoromethyl)pyridin-2-yl]-3-fluorobenzamide]	< 10	–
Cc1cnc(N)c2c(-c3ccc(C(=O)Nc4cc(C(F)F)ccn4)cc3F)nc([C@@H]3CC[C@H](C)N(C(=O)C4(C)COC4)C3)n12 [Example 462, 4-(8-amino-5-methyl-3-{(3R,6S)-6-methyl-1-[(3-methyloxetan-3-yl)carbonyl]piperidin-3-yl}imidazo[1,5-a]pyrazin-1-yl)-N-[4-(difluoromethyl)pyridin-2-yl]-3-fluorobenzamide]	< 10	–
CC1(C(=O)N2CCC[C@@H](c3nc(-c4ccc(C(=O)Nc5cc(C(F)(F)F)ccn5)cc4)c4c(N)ncc(C=O)n34)C2)COC1 [Example 464, 4-(8-amino-5-formyl-3-{(3R)-1-[(3-methyloxetan-3-yl)carbonyl]piperidin-3-yl}imidazo[1,5-a]pyrazin-1-yl)-N-[4-(trifluoromethyl)pyridin-2-yl]benzamide]	10 to 100	–
C[C@@H](O)c1cnc(N)c2c(-c3ccc(C(=O)Nc4cc(C(F)(F)F)ccn4)cc3)nc([C@@H]3CCCN(C(=O)C4(C)COC4)C3)n12 [Example 465, 4-(8-amino-5-[(1R)-1-hydroxyethyl]-3-{(3R)-1-[(3-methyloxetan-3-yl)carbonyl]piperidin-3-yl}imidazo[1,5-a]pyrazin-1-yl)-N-[4-(trifluoromethyl)pyridin-2-yl]benzamide]	< 10	–

Results, then the molecule that gave them:

IC50 [1] [nM]	IC50 [2] [nM]	Structure (SMILES)
< 10	–	CC(=O)N1CCC[C@@H](c2nc(-c3ccc(C(=O)Nc4cc(C(F)(F)F)ccn4)cc3)c3c(N)ncc(Cl)n23)C1 [Example 440, 4-{3-[(3R)-1-acetylpiperidin-3-yl]-8-amino-5-chloroimidazo[1,5-a]pyrazin-1-yl}-N-[4-(trifluoromethyl)pyridin-2-yl]benzamide]
< 10	–	Nc1ncc(Cl)n2c([C@@H]3CCCN(C(=O)CO)C3)nc(-c3ccc(C(=O)Nc4cc(C(F)(F)F)ccn4)cc3)c12 [Example 441, 4-{8-amino-5-chloro-3-[(3R)-1-(hydroxyacetyl)piperidin-3-yl]imidazo[1,5-a]pyrazin-1-yl}-N-[4-(trifluoromethyl)pyridin-2-yl]benzamide]
< 10	–	COCC(=O)N1CCC[C@@H](c2nc(-c3ccc(C(=O)Nc4cc(C(F)(F)F)ccn4)cc3)c3c(N)ncc(Cl)n23)C1 [Example 442, 4-{8-amino-5-chloro-3-[(3R)-1-(methoxyacetyl)piperidin-3-yl]imidazo[1,5-a]pyrazin-1-yl}-N-[4-(trifluoromethyl)pyridin-2-yl]benzamide]
< 10	–	Nc1ncc(Cl)n2c([C@@H]3CCCN(C=O)C3)nc(-c3ccc(C(=O)Nc4cc(C(F)(F)F)ccn4)cc3)c12 [Example 443, 4-{8-amino-5-chloro-3-[(3R)-1-formylpiperidin-3-yl]imidazo[1,5-a]pyrazin-1-yl}-N-[4-(trifluoromethyl)pyridin-2-yl]benzamide]
< 10	–	COc1ccnc(NC(=O)c2ccc(-c3nc([C@@H]4CCCN(C(=O)C5(C)COC5)C4)n4c(Cl)cnc(N)c34)cc2)c1 [Example 444, 4-(8-amino-5-chloro-3-{(3R)-1-[(3-methyloxetan-3-yl)carbonyl]piperidin-3-yl}imidazo[1,5-a]pyrazin-1-yl)-N-(4-methoxypyridin-2-yl)benzamide]
< 10	–	CC1(C(=O)N2CCC[C@@H](c3nc(-c4ccc(C(=O)Nc5cc(C#N)ccn5)cc4)c4c(N)ncc(Cl)n34)C2)COC1 [Example 445, 4-(8-amino-5-chloro-3-{(3R)-1-[(3-methyloxetan-3-yl)carbonyl]piperidin-3-yl}imidazo[1,5-a]pyrazin-1-yl)-N-(4-cyanopyridin-2-yl)benzamide]
< 10	–	Cc1ccnc(NC(=O)c2ccc(-c3nc([C@@H]4CCCN(C(=O)C5(C)COC5)C4)n4c(Cl)cnc(N)c34)cc2)c1 [Example 446, 4-(8-amino-5-chloro-3-{(3R)-1-[(3-methyloxetan-3-yl)carbonyl]piperidin-3-yl}imidazo[1,5-a]pyrazin-1-yl)-N-(4-methylpyridin-2-yl)benzamide]
< 10	–	CC1(C(=O)N2CCC[C@@H](c3nc(-c4ccc(C(=O)Nc5cc(C(F)(F)F)ccn5)cc4F)c4c(N)ncc(Cl)n34)C2)COC1 [Example 447, 4-(8-amino-5-chloro-3-{(3R)-1-[(3-methyloxetan-3-yl)carbonyl]piperidin-3-yl}imidazo[1,5-a]pyrazin-1-yl)-3-fluoro-N-[4-(trifluoromethyl)pyridin-2-yl]benzamide]
< 10	–	Cc1ccnc(NC(=O)c2ccc(-c3nc([C@@H]4CCCN(C(=O)C5(C)COC5)C4)n4c(Cl)cnc(N)c34)c(F)c2)c1 [Example 448, 4-(8-amino-5-chloro-3-{(3R)-1-[(3-methyloxetan-3-yl)carbonyl]piperidin-3-yl}imidazo[1,5-a]pyrazin-1-yl)-3-fluoro-N-(4-methylpyridin-2-yl)benzamide]
< 10	0.656	COCc1cnc(N)c2c(-c3ccc(C(=O)Nc4cc(C(F)(F)F)ccn4)cc3)nc([C@@H]3CCCN(C(=O)C4(C)COC4)C3)n12 [Example 449, 4-[8-amino-5-(methoxymethyl)-3-{(3R)-1-[(3-methyloxetan-3-yl)carbonyl]piperidin-3-yl}imidazo[1,5-a]pyrazin-1-yl]-N-[4-(trifluoromethyl)pyridin-2-yl]benzamide]
